Assay results published in publication PMC3436960 (Biochemistry, 2012).

Key:
[1] = molecular target: T1, S. typhimurium OMP synthase (orotate phosphoribosyltransferase) (Salmonella enterica, UniProt P08870); experiment: equilibrium binding by centrifugal filtration
T1 sequence (P08870 2-213): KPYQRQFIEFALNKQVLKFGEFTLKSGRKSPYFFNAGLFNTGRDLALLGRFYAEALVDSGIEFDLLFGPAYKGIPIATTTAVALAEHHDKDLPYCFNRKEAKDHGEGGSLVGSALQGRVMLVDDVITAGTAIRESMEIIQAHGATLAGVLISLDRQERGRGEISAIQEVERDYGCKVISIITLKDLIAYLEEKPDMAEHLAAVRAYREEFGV

[2] = molecular target: S. typhimurium OMP synthase (orotate phosphoribosyltransferase) (Salmonella enterica, UniProt P08870, E101A); experiment: biochemical
[3] = molecular target: S. typhimurium OMP synthase (orotate phosphoribosyltransferase) (Salmonella enterica, UniProt P08870, H105A); experiment: biochemical
[4] = molecular target: S. typhimurium OMP synthase (orotate phosphoribosyltransferase) (Salmonella enterica, UniProt P08870, DEL102-102/DEL106-106); experiment: biochemical
[5] = molecular target: S. typhimurium OMP synthase (orotate phosphoribosyltransferase) (Salmonella enterica, UniProt P08870, E107A); experiment: biochemical
[6] = molecular target: S. typhimurium OMP synthase (orotate phosphoribosyltransferase) (Salmonella enterica, UniProt P08870, K103A); experiment: biochemical
[7] = molecular target: S. typhimurium OMP synthase (orotate phosphoribosyltransferase) (Salmonella enterica, UniProt P08870, D104A); experiment: biochemical
[8] = substrate: O=C(O)c1cc(=O)[nH]c(=O)[nH]1; experiment: purified protein; assay type: biochemical, Salmonella enterica; conditions: 1 mM PRPP, 6 mM MgCl2, 75 mM Tris-Cl, pH 8.0, 30°C
[9] = substrate: O=P(O)(O)OC[C@H]1O[C@H](OP(=O)(O)OP(=O)(O)O)[C@H](O)[C@@H]1O; experiment: purified protein; assay type: biochemical, Salmonella enterica; conditions: 300 μM orotate, 6 mM MgCl2, 75 mM Tris-Cl, pH 8.0, 30°C
[10] = substrate: O=C(O)c1cc(=O)[nH]c(=O)n1[C@@H]1O[C@H](COP(=O)(O)O)[C@@H](O)[C@H]1O; experiment: purified protein; conditions: 2 mM PPi, 3 mM MgCl2, 80 mM Tris-Cl, pH 8.0, 30°C
[11] = substrate: O=P(O)(O)OP(=O)(O)O; experiment: purified protein; conditions: 100 μM OMP, 3 mM MgCl2, 80 mM Tris-Cl, pH 8.0, 30°C

O=C(O)c1cc(=O)[nH]c(=O)n1[C@@H]1O[C@H](COP(=O)(O)O)[C@@H](O)[C@H]1O [OMP]
Kd [1]: 3.1 ± 0.1 µM | Kd [2]: 12 ± 2 µM | Kd [3]: 4 ± 0.3 µM | Kd [4]: 2 ± 0.1 µM | Kd [5]: 6.5 ± 0.8 µM | Kd [6]: 3 ± 0.1 µM

O=C(O)c1cc(=O)[nH]c(=O)[nH]1 [Orotate]
Kd [1]: 280 ± 30 µM

O=P(O)(O)OC[C@H]1O[C@H](OP(=O)(O)OP(=O)(O)O)[C@H](O)[C@@H]1O [PRPP]
Kd [1]: 33 ± 0.5 µM | Kd [7]: 13 ± 0.7 µM | Kd [2]: 36 ± 3 µM | Kd [3]: 92 ± 11 µM | Kd [5]: 7.1 ± 0.5 µM | Kd [6]: 125 ± 11 µM

B1: S. typhimurium OMP synthase (orotate phosphoribosyltransferase) (Salmonella enterica subsp. enterica serovar Typhimurium str. LT2) (protein)
chain: T1 sequence (P08870 2-213)
Km [8]: 19 ± 3 µM | kcat [8]: 56 ± 2.5 s⁻¹ | kcat/Km [8]: 3e+06 M⁻¹ s⁻¹ | Km [9]: 18 ± 5 µM | kcat [9]: 56 ± 2.5 s⁻¹ | kcat/Km [9]: 3.1e+06 M⁻¹ s⁻¹ | Km [10]: 3 ± 0.3 µM | Km [11]: 31 ± 3 µM | kcat [11]: 18 ± 0.3 s⁻¹ | kcat/Km [11]: 580000 M⁻¹ s⁻¹
